pEC50, pIC50: −log10 of the molar value. Activity calls are given as the source filed them. The rule behind the calls is not given here.
Tests used:
MCF7 [1] = assay: Antiproliferative activity against human MCF7 cells assessed as inhibition of cell growth measured after 6 days by cell titre glo luminescence assay; conditions: MCF7, 144 h
Estrogen receptor [2] = molecular target: T1, Estrogen receptor (Homo sapiens, UniProt P03372); assay: Induction of ERalpha degradation in human MCF7 cells incubated for 24 hrs by Western blot analysis; type: cell-based
T1 sequence (P03372 whole entry): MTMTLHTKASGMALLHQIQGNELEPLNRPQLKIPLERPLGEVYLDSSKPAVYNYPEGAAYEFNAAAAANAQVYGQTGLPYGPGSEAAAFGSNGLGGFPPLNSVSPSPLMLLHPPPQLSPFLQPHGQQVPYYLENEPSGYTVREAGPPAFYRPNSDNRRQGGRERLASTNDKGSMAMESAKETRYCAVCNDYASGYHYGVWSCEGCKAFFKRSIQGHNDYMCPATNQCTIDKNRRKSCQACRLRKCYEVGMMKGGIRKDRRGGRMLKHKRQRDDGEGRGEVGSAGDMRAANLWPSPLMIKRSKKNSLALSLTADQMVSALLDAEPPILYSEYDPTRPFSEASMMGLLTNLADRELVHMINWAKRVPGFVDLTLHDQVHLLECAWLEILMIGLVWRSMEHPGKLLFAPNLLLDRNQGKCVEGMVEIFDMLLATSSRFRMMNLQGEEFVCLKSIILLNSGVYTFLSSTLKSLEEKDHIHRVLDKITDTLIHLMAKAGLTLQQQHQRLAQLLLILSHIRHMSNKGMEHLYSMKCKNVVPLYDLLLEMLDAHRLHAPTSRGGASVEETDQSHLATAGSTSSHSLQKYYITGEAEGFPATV

Estrogen receptor [3] = molecular target: T1, Estrogen receptor; assay: Antagonist activity at ERalpha expressed in HEK293/Gal4 cells incubated for 24 hrs in presence of estradiol by luciferase reporter gene assay; type: cell-based
[4] = Cmax in Sprague-Dawley rat at 5 mg/kg, po measured up to 24 hrs by LC/MS/MS analysis; type: ADME, organism-based; design: time < 24 hrs, dose 5 mg/kg, route po; conditions: in vivo
[5] = AUC (0 to t) in Sprague-Dawley rat at 5 mg/kg, po measured up to 24 hrs by LC/MS/MS analysis; type: ADME, organism-based; design: time < 24 hrs, dose 5 mg/kg, route po; conditions: in vivo
[6] = molecular target: Voltage-gated inwardly rectifying potassium channel KCNH2 (Homo sapiens, UniProt Q12809); assay: Inhibition of human ERG potassium channel expressed in CHO cells by patch-clamp assay; type: toxicity, cell-based
Sequence of Voltage-gated inwardly rectifying potassium channel KCNH2 (Q12809 whole entry, the tested form may be a part): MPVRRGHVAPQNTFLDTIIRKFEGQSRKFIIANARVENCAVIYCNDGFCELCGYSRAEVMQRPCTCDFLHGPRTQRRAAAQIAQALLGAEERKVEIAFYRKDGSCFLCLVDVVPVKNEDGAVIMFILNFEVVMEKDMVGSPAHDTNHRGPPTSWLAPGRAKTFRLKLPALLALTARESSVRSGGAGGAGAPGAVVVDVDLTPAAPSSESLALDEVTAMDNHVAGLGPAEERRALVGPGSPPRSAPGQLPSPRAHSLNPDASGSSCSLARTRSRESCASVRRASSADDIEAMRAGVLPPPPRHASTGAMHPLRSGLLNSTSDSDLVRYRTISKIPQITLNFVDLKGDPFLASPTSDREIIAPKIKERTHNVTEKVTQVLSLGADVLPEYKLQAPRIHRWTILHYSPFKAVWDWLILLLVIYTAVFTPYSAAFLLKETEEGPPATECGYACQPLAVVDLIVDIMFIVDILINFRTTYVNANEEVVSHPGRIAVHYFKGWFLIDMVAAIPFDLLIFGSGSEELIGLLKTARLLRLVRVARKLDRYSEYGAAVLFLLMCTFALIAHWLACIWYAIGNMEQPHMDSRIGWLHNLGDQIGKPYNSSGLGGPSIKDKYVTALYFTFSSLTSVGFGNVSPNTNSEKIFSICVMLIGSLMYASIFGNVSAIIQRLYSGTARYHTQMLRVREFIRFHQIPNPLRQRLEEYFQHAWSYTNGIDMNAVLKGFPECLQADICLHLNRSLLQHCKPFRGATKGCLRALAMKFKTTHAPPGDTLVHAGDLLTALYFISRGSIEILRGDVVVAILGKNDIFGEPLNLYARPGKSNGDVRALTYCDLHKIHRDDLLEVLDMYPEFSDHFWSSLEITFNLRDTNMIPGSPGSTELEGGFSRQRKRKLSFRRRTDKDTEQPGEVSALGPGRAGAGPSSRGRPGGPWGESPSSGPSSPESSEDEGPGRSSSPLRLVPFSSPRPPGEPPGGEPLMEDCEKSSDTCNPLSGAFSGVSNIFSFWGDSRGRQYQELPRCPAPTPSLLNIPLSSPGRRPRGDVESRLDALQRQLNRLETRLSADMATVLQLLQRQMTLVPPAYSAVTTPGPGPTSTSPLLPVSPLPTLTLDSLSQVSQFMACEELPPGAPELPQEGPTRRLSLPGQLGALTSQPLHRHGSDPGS

Estrogen receptor beta = Estrogen receptor beta (Homo sapiens, UniProt Q92731); assay: Antagonist activity at ERbeta expressed in HEK293/Gal4 cells incubated for 24 hrs in presence of di-arylpropionitrile by luciferase reporter gene assay
Sequence of Estrogen receptor beta (Q92731 whole entry, the tested form may be a part): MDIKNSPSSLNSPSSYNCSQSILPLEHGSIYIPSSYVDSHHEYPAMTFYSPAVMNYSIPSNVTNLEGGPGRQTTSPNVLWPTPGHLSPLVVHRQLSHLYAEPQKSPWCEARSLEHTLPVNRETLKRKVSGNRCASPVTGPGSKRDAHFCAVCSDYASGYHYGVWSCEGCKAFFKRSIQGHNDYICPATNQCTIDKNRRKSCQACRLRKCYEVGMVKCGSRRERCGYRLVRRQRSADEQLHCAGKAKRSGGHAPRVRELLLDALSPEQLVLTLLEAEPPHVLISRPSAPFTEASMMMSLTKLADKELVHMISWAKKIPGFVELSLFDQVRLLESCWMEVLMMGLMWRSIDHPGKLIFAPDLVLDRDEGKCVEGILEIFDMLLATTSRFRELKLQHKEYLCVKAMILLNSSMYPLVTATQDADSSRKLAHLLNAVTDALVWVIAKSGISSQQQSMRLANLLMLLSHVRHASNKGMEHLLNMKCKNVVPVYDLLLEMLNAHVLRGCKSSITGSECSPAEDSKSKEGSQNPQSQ

[7] = Cmax in Sprague-Dawley rat at 10 mg/kg, po measured up to 24 hrs by LC/MS/MS analysis; type: ADME, organism-based; design: time < 24 hrs, dose 10 mg/kg, route po; conditions: in vivo
[8] = AUC (0 to t) in Sprague-Dawley rat at 10 mg/kg, po measured up to 24 hrs by LC/MS/MS analysis; type: ADME, organism-based; design: time < 24 hrs, dose 10 mg/kg, route po; conditions: in vivo
Estrogen receptor [9] = molecular target: Estrogen receptor (Homo sapiens, UniProt P03372, Y537S); assay: Antagonist activity at ERalpha Y537S mutant degradation in human SK-BR-3 cells incubated for 24 hrs in presence of beta-estradiol by luciferase gene assay; type: cell-based
Sequence of Estrogen receptor (Homo sapiens, UniProt P03372, Y537S) (P03372 whole entry Y537S): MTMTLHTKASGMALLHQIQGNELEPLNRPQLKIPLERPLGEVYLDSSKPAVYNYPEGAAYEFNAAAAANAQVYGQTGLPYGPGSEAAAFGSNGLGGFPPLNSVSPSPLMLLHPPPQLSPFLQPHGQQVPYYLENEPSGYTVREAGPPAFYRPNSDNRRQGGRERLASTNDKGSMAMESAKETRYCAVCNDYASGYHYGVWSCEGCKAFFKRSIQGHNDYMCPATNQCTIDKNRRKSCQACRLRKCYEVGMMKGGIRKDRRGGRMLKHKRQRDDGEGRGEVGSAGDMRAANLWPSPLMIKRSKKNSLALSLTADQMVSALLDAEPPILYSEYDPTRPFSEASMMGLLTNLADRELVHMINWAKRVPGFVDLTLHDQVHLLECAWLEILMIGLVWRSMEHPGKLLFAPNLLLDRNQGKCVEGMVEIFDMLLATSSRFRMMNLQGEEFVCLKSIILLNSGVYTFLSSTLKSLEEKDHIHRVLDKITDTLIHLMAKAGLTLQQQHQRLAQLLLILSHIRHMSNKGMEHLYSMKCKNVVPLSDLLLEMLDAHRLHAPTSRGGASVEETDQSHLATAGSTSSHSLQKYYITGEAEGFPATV

Estrogen receptor [10] = molecular target: Estrogen receptor (Homo sapiens, UniProt P03372, D538G); assay: Antagonist activity at ERalpha D538G mutant degradation in human SK-BR-3 cells incubated for 24 hrs in presence of beta-estradiol by luciferase gene assay; type: cell-based
Sequence of Estrogen receptor (Homo sapiens, UniProt P03372, D538G) (P03372 whole entry D538G): as the sequence (P03372 whole entry Y537S) above, with S537Y, D538G counted along it

MCF7 [11] = assay: Anti-hyperplasia activity in […] Sprague-Dawley rat assessed as appearance of tall columnar phenotype in epithelial cells at 60 mg/kg, po once daily for 3 days by hematoxylin and eosin staining based assay; type: functional, organism-based; conditions: time 3.0 day

Compound | pIC50 (MCF7 [1]) | pEC50 (Estrogen receptor [2]) | pIC50 (Estrogen receptor [3]) | pIC50 [6] | other results
CC(F)(F)c1cc(F)ccc1-c1sc2c(ccc3[nH]ncc32)c1Oc1ccc(OC2CN(CCCF)C2)c(F)c1 | 9.10 | 8.89 | 9.00 |  | 
CC(F)(F)c1cc(-c2sc3cc(O)ccc3c2Oc2ccc(/C=C/C(=O)O)cc2)ccc1F |  |  |  |  | Cmax [4]: 283 ng/mL; AUC(0-t) at 24 h [5]: 585 ng·h/mL
CC(C)(F)c1cc(F)ccc1-c1sc2c(ccc3[nH]ncc32)c1Oc1ccc(OC2CN(CCCF)C2)c(F)c1 |  |  |  | < 4.40 | 
O=C(O)c1ccc2c(c1)CCCC(c1ccc(Cl)cc1Cl)=C2c1ccc(O[C@H]2CCN(CCCF)C2)cc1 [AMCENESTRANT] | 8.04 |  |  |  | pIC50 (Estrogen receptor beta): 8.07
COc1cc(Oc2c(-c3ccc(F)cc3CC(F)(F)F)sc3c2ccc2[nH]ncc23)ccc1NC1CN(CCCF)C1 | 8.77 | 8.66 | 8.96 |  | 
COc1cc(Oc2c(-c3ccc(F)cc3C(C)(F)F)sc3c2ccc2[nH]ncc23)ccc1NC1CN(CCCF)C1 |  |  |  | 4.94 | 
COc1cc(Oc2c(-c3cc(F)c(F)cc3C(C)(F)F)sc3c2ccc2[nH]ncc23)ccc1OC1CN(CCCF)C1 | 8.92 | 8.52 | 8.85 |  | 
CC(F)(F)c1cc(F)c(F)cc1-c1sc2c(ccc3[nH]ncc32)c1Oc1ccc(OC2CN(CCCF)C2)c(F)c1 | 8.55 | 8.41 | 8.28 | < 4.40 | Cmax [7]: 132 ng/mL; AUC(0-t) at 24 h [8]: 1280 ng·h/mL
CC(F)(F)c1cc(Cl)ccc1-c1sc2c(ccc3[nH]ncc32)c1Oc1ccc(NC2CN(CCCF)C2)cc1 |  | 8.92 |  |  | Cmax [7]: 228 ng/mL; AUC(0-t) at 24 h [8]: 3090 ng·h/mL; pIC50 (Estrogen receptor [9]): 7.88; pIC50 (Estrogen receptor [10]): 7.78
CC(C)(F)c1cc(F)ccc1-c1sc2c(ccc3[nH]ncc32)c1Oc1ccc(NC2CN(CCCF)C2)cc1 |  |  |  | 5.21 | 
COc1cc(Oc2c(-c3ccc(F)cc3C(C)(F)F)sc3c2ccc2[nH]ncc23)ccc1OC1CN(CCCF)C1 | 9.05 | 9.40 | 9.22 | < 4.40 | 
COc1cc(Oc2c(-c3cc(F)c(F)cc3C(C)(F)F)sc3c2ccc2[nH]ncc23)ccc1NC1CN(CCCF)C1 | 8.77 | 8.59 | 8.60 | 4.81 | 
FCCCN1CC(Oc2ccc(Oc3c(-c4ccc(F)cc4CC(F)(F)F)sc4c3ccc3[nH]ncc34)cc2F)C1 |  |  |  | < 4.40 | 
CC(F)(F)c1cc(F)ccc1-c1sc2c(ccc3[nH]ncc32)c1Oc1ccc(S(=O)(=O)CCN2CC(CF)C2)cc1 | 8.23 | < 6.00 |  |  | 
CC(F)(F)c1cc(F)c(F)cc1-c1sc2c(ccc3[nH]ncc32)c1Oc1ccc(NC2CN(CCCF)C2)cc1 |  |  |  | 5.13 | 
CC/C(=C(\c1ccc(O)cc1)c1ccc(OCCN(C)C)cc1)c1ccccc1 |  |  |  |  | Activity (MCF7 [11]): Active
CC(F)(F)c1cc(Cl)ccc1-c1sc2c(ccc3[nH]ncc32)c1Oc1ccc(OC[C@H]2CCCN2CCCF)cc1 | 8.08 | < 6.00 |  |  | 
CC(F)(F)c1cc(F)ccc1-c1sc2c(ccc3[nH]ncc32)c1Oc1ccc(OCCN2CC3C(C2)C3(F)F)cc1 (stereo not given) | 8.12 | < 6.00 |  |  | 
CC(F)(F)c1cc(F)c(F)cc1-c1sc2c(ccc3[nH]ncc32)c1Oc1ccc(OC2CN(CCCF)C2)cc1 | 8.80 | 8.47 | 8.60 |  | 
CC(F)(F)c1cc(F)ccc1-c1sc2c(ccc3[nH]ncc32)c1Oc1ccc(COCCN2CC(CF)C2)cc1 | 8.33 | < 6.00 |  |  | 
CC(F)(F)c1cc(Cl)ccc1-c1sc2cc(C(=O)O)ccc2c1Oc1ccc(OC2CN(CCCF)C2)cc1 | 7.46 | 8.41 |  |  | 
CC(F)(F)c1cc(F)ccc1-c1sc2c(ccc3[nH]ncc32)c1Oc1ccc(NC2CN(CCCF)C2)c(F)c1 | 9.10 | 8.89 | 8.96 | 4.56 | 
COc1cc(Oc2c(-c3ccc(F)cc3CC(F)(F)F)sc3c2ccc2[nH]ncc23)ccc1OC1CN(CCCF)C1 | 9.22 | 8.74 | 9.05 |  | 
CC(F)(F)c1cc(Cl)ccc1-c1sc2cc(C(=O)O)ccc2c1Oc1ccc(NC2CN(CCCF)C2)cc1 | 8.23 | 7.88 |  |  | 
CC(F)(F)c1cc(Cl)ccc1-c1sc2c(ccc3[nH]ncc32)c1Oc1ccc(O[C@@H]2CCN(CCCF)C2)cc1 | 8.59 | 9.15 |  |  | 
FCCCN1CC(Nc2ccc(Oc3c(-c4ccc(F)cc4CC(F)(F)F)sc4c3ccc3[nH]ncc34)cc2)C1 | 9.10 | 8.66 | 8.89 |  | 
CC(c1cc(F)ccc1-c1sc2c(ccc3[nH]ncc32)c1Oc1ccc(OC2CN(CCCF)C2)cc1)C(F)(F)F (stereo not given) | 8.66 | 8.60 |  |  | 
CC(F)(F)c1cc(F)ccc1-c1sc2cc(B(O)O)ccc2c1Oc1ccc(OCCN2CC[C@@H](CF)C2)cc1 | 8.82 | 8.66 |  |  | 
COc1cc(Oc2c(-c3ccc(F)cc3C(C)(C)F)sc3c2ccc2[nH]ncc23)ccc1OC1CN(CCCF)C1 | 9.30 | 8.85 | 9.10 | < 4.40 | Cmax [7]: 47 ng/mL; AUC(0-t) at 24 h [8]: 264 ng·h/mL
